Measurements reported in patent US20060100103A1, “Toning agents for use in thermographic recording materials” (AGFA-GEVAERT, priority 2004, published 2006).

experiment: Solubility in methyl ethyl ketone; format: physicochemical

Solubility in methyl ethyl ketone [wt %] | Structure (SMILES)
>10 | CC1=CC(=O)NS(=O)(=O)O1 [TA02]
>2 | CN1C(=O)NS(=O)(=O)c2ccccc21 [TA01]
5.5 | O=C1CS(=O)(=O)OC2=C1CCCC2 [TA03]
>10 | O=C1NS(=O)(=O)Oc2ccccc21 [TA04]
